US9975895B2, “Substituted pyrimidinium compounds and derivatives for combating animal pests” (BASF SE, priority 2013, dated 2018)

What was measured:
Format in all cases: in vivo
[1] = system: Vetch aphid (Megoura viciae); test: Vetch aphid control through contact or systemic means, broad bean leaf disks; conditions: foliar, 120 h, adult aphids on treated leaf disks, 5 days, read-out: mortality in comparison with untreated controls
Experimental: For evaluating control of vetch aphid (Megoura viciae) through contact or systemic means the test unit consisted of 24-well-microtiter plates containing broad bean leaf disks.
The compounds were formulated using a solution containing 75% v/v water and 25% v/v DMSO. Different concentrations of formulated compounds were sprayed onto the leaf disks at 2.5 μl, using a custom built micro atomizer, at two replications.
After application, the leaf disks were air-dried and 5-8 adult aphids placed on the leaf disks inside the microtiter plate wells. The aphids were then allowed to suck on the treated leaf disks and incubated at about 23±1° C. and about 50±5% relative humidity for 5 days. Aphid mortality and fecundity was then visually assessed.

[2] = system: Orchid thrips (Dichromothrips corbetti); test: Orchid thrips floral-immersion bioassay; conditions: adult thrips, 72 hours after treatment, read-out: mortality in comparison with untreated controls
Experimental: Dichromothrips corbetti adults used for bioassay were obtained from a colony maintained continuously under laboratory conditions. For testing purposes, the test compound is diluted in a 1:1 mixture of acetone:water (vol:vol), plus 0.01% vol/vol Alkamuls® EL 620 surfactant. Thrips potency of each compound was evaluated by using a floral-immersion technique. Plastic petri dishes were used as test arenas. All petals of individual, intact orchid flowers were dipped into treatment solution and allowed to dry. Treated flowers were placed into individual petri dishes along with about 20 adult thrips. The petri dishes were then covered with lids. All test arenas were held under continuous light and a temperature of about 28° C. for duration of the assay. After 3 days, the numbers of live thrips were counted on each flower, and along inner walls of each petri dish. The percent mortality was recorded 72 hours after treatment.

[3] = system: Green peach aphid (Myzus persicae); test: Green peach aphid control through systemic means, artificial diet under membrane; conditions: 72 h, adult aphids on treated diet, 3 days, read-out: mortality in comparison with untreated controls
Source text: For evaluating control of green peach aphid (Myzus persicae) through systemic means the test unit consisted of 96-well-microtiter plates containing liquid artificial diet under an artificial membrane.
The compounds were formulated using a solution containing 75% v/v water and 25% v/v DMSO. Different concentrations of formulated compounds were pipetted into the aphid diet, using a custom built pipetter, at two replications.
After application, 5-8 adult aphids were placed on the artificial membrane inside the microtiter plate wells. The aphids were then allowed to suck on the treated aphid diet and incubated at about 23±1° C. and about 50±5% relative humidity for 3 days. Aphid mortality and fecundity was then visually assessed.

[4] = system: Rice brown plant hopper (Nilaparvata lugens); test: Rice brown plant hopper, sprayed potted rice seedlings; conditions: adults on sprayed rice seedlings, after 72 hours, read-out: mortality in comparison with untreated controls
Experimental: (§1) Rice seedlings were cleaned and washed 24 hours before spraying. The active compounds were formulated in 50:50 acetone:water (vol:vol) and 0.1% vol/vol surfactant (EL 620) was added. Potted rice seedlings were sprayed with 5 ml test solution, air dried, placed in cages and inoculated with 10 adults. Treated rice plants were kept at about 28-29° C. and relative humidity of about 50-60%. Percent mortality was recorded after 72 hours.

[5] = system: Rice green leafhopper (Nephotettix virescens); test: Rice green leafhopper, sprayed potted rice seedlings; conditions: adults on sprayed rice seedlings, after 72 hours, read-out: mortality in comparison with untreated controls
Experimental: as §1, with “(vol:vol),” for “(vol:vol)”

[6] = system: Boll weevil (Anthonomus grandis); test: Boll weevil control, 96-well microtiter plates with insect diet and eggs; conditions: 120 h, egg and larval mortality after 5 days, read-out: mortality in comparison with untreated controls
Experimental: For evaluating control of boll weevil (Anthonomus grandis) the test unit consisted of 96-well-microtiter plates containing an insect diet and 5-10 A. grandis eggs.
The compounds were formulated using a solution containing 75% v/v water and 25% v/v DMSO. Different concentrations of formulated compounds were sprayed onto the insect diet at 5 μl, using a custom built micro atomizer, at two replications.
After application, microtiter plates were incubated at about 25±1° C. and about 75±5% relative humidity for 5 days. Egg and larval mortality was then visually assessed.

[7] = system: Tobacco budworm (Heliothis virescens); test: Tobacco budworm control, 96-well microtiter plates with insect diet and eggs; conditions: 120 h, egg and larval mortality after 5 days, read-out: mortality in comparison with untreated controls
Experimental: For evaluating control of tobacco budworm (Heliothis virescens) the test unit consisted of 96-well-microtiter plates containing an insect diet and 15-25 H. virescens eggs.
The compounds were formulated using a solution containing 75% v/v water and 25% v/v DMSO. Different concentrations of formulated compounds were sprayed onto the insect diet at 10 μl, using a custom built micro atomizer, at two replications.
After application, microtiter plates were incubated at about 28±1° C. and about 80±5% relative humidity for 5 days. Egg and larval mortality was then visually assessed.

O=c1c(-c2ccccc2)c([O-])[n+]2c3n1CCC3CCC2c1cnc(Cl)s1 (stereo not drawn) [C-2]
> 75%: mortality at 2500 ppm [1] | mortality at 500 ppm [2] | mortality at 2500 ppm [3] | mortality at 500 ppm [4] | mortality at 500 ppm [5]

O=c1c(-c2ccccc2)c([O-])[n+]2c3n1CCCC3CC2c1cnc(Cl)s1 (stereo not drawn) [C-3]
> 75%: mortality at 2500 ppm [1] | mortality at 500 ppm [2] | mortality at 2500 ppm [3] | mortality at 500 ppm [4] | mortality at 500 ppm [5]

O=c1c(-c2ccccc2)c([O-])[n+]2c3n1CCN3CCC2c1cnc(Cl)s1 (stereo not drawn) [C-4]
> 75%: mortality at 500 ppm [2] | mortality at 2500 ppm [3] | mortality at 500 ppm [5]

O=c1c(-c2ccccc2)c([O-])[n+]2c3n1CCCC3CCC2c1cnc(Cl)s1 (stereo not drawn) [C-6]
> 75%: mortality at 2500 ppm [1] | mortality at 500 ppm [2] | mortality at 2500 ppm [3] | mortality at 500 ppm [4] | mortality at 500 ppm [5]

O=c1c(-c2ccccc2)c([O-])[n+]2c3n1CCCN3CCC2c1cnc(Cl)s1 (stereo not drawn) [C-7]
> 75%: mortality at 2500 ppm [6] | mortality at 2500 ppm [1] | mortality at 500 ppm [2] | mortality at 2500 ppm [3] | mortality at 500 ppm [4] | mortality at 500 ppm [5]

O=c1c(-c2ccccc2)c([O-])[n+]2c3c(cccn13)CCC2c1cnc(Cl)s1 (stereo not drawn) [C-8]
> 75%: mortality at 2500 ppm [6] | mortality at 2500 ppm [1] | mortality at 500 ppm [2] | mortality at 2500 ppm [7] | mortality at 2500 ppm [3] | mortality at 500 ppm [4] | mortality at 500 ppm [5]

O=c1c(-c2cccc(C(F)(F)F)c2)c([O-])n2c3c(ccc[n+]13)CCC2c1cnc(Cl)s1 (stereo not drawn) [C-9]
> 75%: mortality at 2500 ppm [1] | mortality at 2500 ppm [7] | mortality at 2500 ppm [3]

O=c1c(-c2cc(Cl)cc(Cl)c2)c([O-])n2c3c(ccc[n+]13)CCC2c1cnc(Cl)s1 (stereo not drawn) [C-10]
> 75%: mortality at 2500 ppm [1] | mortality at 2500 ppm [7]

COc1ccc(-c2c([O-])n3c4c(ccc[n+]4c2=O)CCC3c2cnc(Cl)s2)cc1 (stereo not drawn) [C-11]
> 75%: mortality at 2500 ppm [1] | mortality at 2500 ppm [7] | mortality at 2500 ppm [3]
